In ChEMBL document CHEMBL3885881, “DrugMatrix”:

Organism: Rattus norvegicus
Format: toxicity, organism-based, Sprague-Dawley
Settings: in vivo, ip, route intraperitoneal, vehicle 100 % SALINE; for ABSOLUTE EOSINOPHIL / ABSOLUTE LYMPHOCYTE / ABSOLUTE MONOCYTE / ABSOLUTE SEGMENTED NEUTROPHIL / BASOPHIL / EOSINOPHIL / ERYTHROCYTE COUNT / HEMATOCRIT / HEMOGLOBIN / LEUKOCYTE COUNT / LYMPHOCYTE / MEAN CORPUSCULAR HEMOGLOBIN / MEAN CORPUSCULAR HEMOGLOBIN CONCENTRATION / MEAN CORPUSCULAR VOLUME / MONOCYTE / NEUTROPHIL / NUCLEATED RED BLOOD CELLS / PLATELET COUNT: tissue Blood; for ALANINE AMINOTRANSFERASE / ALBUMIN / ALKALINE PHOSPHATASE / ASPARTATE AMINOTRANSFERASE / BLOOD UREA NITROGEN / CARBON DIOXIDE / CHLORIDE / CHOLESTEROL / CREATINE PHOSPHOKINASE / CREATININE / GLUCOSE / LACTATE DEHYDROGENASE / LIPASE / PHOSPHORUS / POTASSIUM / SODIUM / TOTAL BILIRUBIN / TOTAL PROTEIN / URIC ACID: tissue Plasma
[1] = 16 mg/kg, 24 h, dose level Low, time 1 day
[2] = 25 mg/kg, 6 h, dose level M1, time 0.25 day
[3] = 25 mg/kg, 24 h, dose level M1, time 1 day

Description: DrugMatrix - Regimen: Single

C=CCO [ALLYL ALCOHOL]
ABSOLUTE EOSINOPHIL [1]: 29.33 CELLS/uL | ABSOLUTE LYMPHOCYTE [1]: 15204.83 CELLS/uL | ABSOLUTE MONOCYTE [1]: 174.67 CELLS/uL | ABSOLUTE SEGMENTED NEUTROPHIL [1]: 841.17 CELLS/uL | BASOPHIL [1]: 0% | EOSINOPHIL [1]: 0.17% | ERYTHROCYTE COUNT [1]: 5.13 x10E6/uL | HEMATOCRIT [1]: 33.13% | HEMOGLOBIN [1]: 12.85 G/DL | LEUKOCYTE COUNT [1]: 16.25 x10E3/uL | LYMPHOCYTE [1]: 93.83% | MEAN CORPUSCULAR HEMOGLOBIN [1]: 25.02 pg | MEAN CORPUSCULAR HEMOGLOBIN CONCENTRATION [1]: 38.82 G/DL | MEAN CORPUSCULAR VOLUME [1]: 64.5 fL | MONOCYTE [1]: 1% | NEUTROPHIL [1]: 5% | NUCLEATED RED BLOOD CELLS [1]: 0.33 /100WBC | PLATELET COUNT [1]: 1056.83 x10E3/uL | ALANINE AMINOTRANSFERASE [1]: 50.67 u/L | ALBUMIN [1]: 4.33 G/DL | ALKALINE PHOSPHATASE [1]: 273.5 u/L | ASPARTATE AMINOTRANSFERASE [1]: 75.83 u/L | BLOOD UREA NITROGEN [1]: 11.17 mg/dL | CARBON DIOXIDE [1]: 27.5 mmol/L | CHLORIDE [1]: 101.83 MEQ/L | CHOLESTEROL [1]: 67 mg/dL | CREATINE PHOSPHOKINASE [1]: 299.83 u/L | CREATININE [1]: 0.18 mg/dL | GLUCOSE [1]: 166.33 mg/dL | LACTATE DEHYDROGENASE [1]: 243.17 u/L | LIPASE [1]: 9.67 u/L | PHOSPHORUS [1]: 10.5 mg/dL | POTASSIUM [1]: 5.58 MEQ/L | SODIUM [1]: 147.05 MEQ/L | TOTAL BILIRUBIN [1]: 0.15 mg/dL | TOTAL PROTEIN [1]: 5.87 G/DL | URIC ACID [1]: 1.25 mg/dL | ABSOLUTE EOSINOPHIL [2]: 0 CELLS/uL | ABSOLUTE LYMPHOCYTE [2]: 12514.83 CELLS/uL | ABSOLUTE MONOCYTE [2]: 196.67 CELLS/uL | ABSOLUTE SEGMENTED NEUTROPHIL [2]: 2271.83 CELLS/uL | BASOPHIL [2]: 0% | EOSINOPHIL [2]: 0% | ERYTHROCYTE COUNT [2]: 5.42 x10E6/uL | HEMATOCRIT [2]: 35.1% | HEMOGLOBIN [2]: 13.58 G/DL | LEUKOCYTE COUNT [2]: 14.98 x10E3/uL | LYMPHOCYTE [2]: 83.83% | MEAN CORPUSCULAR HEMOGLOBIN [2]: 25.07 pg | MEAN CORPUSCULAR HEMOGLOBIN CONCENTRATION [2]: 38.7 G/DL | MEAN CORPUSCULAR VOLUME [2]: 64.73 fL | MONOCYTE [2]: 1.33% | NEUTROPHIL [2]: 14.83% | NUCLEATED RED BLOOD CELLS [2]: 0 /100WBC | PLATELET COUNT [2]: 1079 x10E3/uL | ALANINE AMINOTRANSFERASE [2]: 87.5 u/L | ALBUMIN [2]: 4.43 G/DL | ALKALINE PHOSPHATASE [2]: 238.5 u/L | ASPARTATE AMINOTRANSFERASE [2]: 133.17 u/L | BLOOD UREA NITROGEN [2]: 10.33 mg/dL | CARBON DIOXIDE [2]: 27.67 mmol/L | CHLORIDE [2]: 101.5 MEQ/L | CHOLESTEROL [2]: 58.83 mg/dL | CREATINE PHOSPHOKINASE [2]: 180 u/L | CREATININE [2]: 0.12 mg/dL | GLUCOSE [2]: 158.17 mg/dL | LACTATE DEHYDROGENASE [2]: 175.17 u/L | LIPASE [2]: 10.67 u/L | PHOSPHORUS [2]: 11.65 mg/dL | POTASSIUM [2]: 5.53 MEQ/L | SODIUM [2]: 144.52 MEQ/L | TOTAL BILIRUBIN [2]: 0.12 mg/dL | TOTAL PROTEIN [2]: 5.95 G/DL | URIC ACID [2]: 1.33 mg/dL | ABSOLUTE EOSINOPHIL [3]: 41.33 CELLS/uL | ABSOLUTE LYMPHOCYTE [3]: 12363.17 CELLS/uL | ABSOLUTE MONOCYTE [3]: 291.83 CELLS/uL | ABSOLUTE SEGMENTED NEUTROPHIL [3]: 987 CELLS/uL | BASOPHIL [3]: 0% | EOSINOPHIL [3]: 0.33% | ERYTHROCYTE COUNT [3]: 5.25 x10E6/uL | HEMATOCRIT [3]: 35.35% | HEMOGLOBIN [3]: 13.55 G/DL | LEUKOCYTE COUNT [3]: 13.68 x10E3/uL | LYMPHOCYTE [3]: 90.33% | MEAN CORPUSCULAR HEMOGLOBIN [3]: 25.85 pg | MEAN CORPUSCULAR HEMOGLOBIN CONCENTRATION [3]: 38.38 G/DL | MEAN CORPUSCULAR VOLUME [3]: 67.32 fL | MONOCYTE [3]: 2.17% | NEUTROPHIL [3]: 7.17% | NUCLEATED RED BLOOD CELLS [3]: 0.33 /100WBC | PLATELET COUNT [3]: 960.33 x10E3/uL | ALANINE AMINOTRANSFERASE [3]: 143 u/L | ALBUMIN [3]: 4.27 G/DL | ALKALINE PHOSPHATASE [3]: 289.67 u/L | ASPARTATE AMINOTRANSFERASE [3]: 211.17 u/L | BLOOD UREA NITROGEN [3]: 12.5 mg/dL | CARBON DIOXIDE [3]: 28.33 mmol/L | CHLORIDE [3]: 100.67 MEQ/L | CHOLESTEROL [3]: 75.17 mg/dL | CREATINE PHOSPHOKINASE [3]: 317.5 u/L | CREATININE [3]: 0.22 mg/dL | GLUCOSE [3]: 148.33 mg/dL | LACTATE DEHYDROGENASE [3]: 194.67 u/L | LIPASE [3]: 9.33 u/L | PHOSPHORUS [3]: 11.4 mg/dL | POTASSIUM [3]: 6.21 MEQ/L | SODIUM [3]: 147.37 MEQ/L | TOTAL BILIRUBIN [3]: 0.17 mg/dL | TOTAL PROTEIN [3]: 5.9 G/DL | URIC ACID [3]: 1.15 mg/dL
